Measured values from the NIST ThermoML archive (doi:10.1021/acs.jced.8b00132).
Several values for one entry are separate records, joined by “and”; a condition that tells them apart may be missing. Identical values can stand only once.

Conditions: Gas

O=C(C(F)(F)C(F)(F)F)C(F)(C(F)(F)F)C(F)(F)F [dodecafluoro-2-methylpentan-3-one]
Conditions | thermal conductivity
473.39 K, 1887 kPa, transient hot wire | 0.02688 W/m/K
473.39 K, 22521 kPa, transient hot wire | 0.05152 W/m/K
473.39 K, 49215 kPa, transient hot wire | 0.06271 W/m/K
473.39 K, 49255 kPa, transient hot wire | 0.06285 W/m/K
473.4 K, 22522 kPa, transient hot wire | 0.05154 W/m/K
473.4 K, 33946 kPa, transient hot wire | 0.05711 W/m/K
473.42 K, 7819 kPa, transient hot wire | 0.04151 W/m/K
473.44 K, 47 kPa, hot wire | 0.02441 W/m/K
473.44 K, 201 kPa, hot wire | 0.0244 W/m/K
473.44 K, 7822 kPa, transient hot wire | 0.0416 W/m/K
473.44 K, 49246 kPa, transient hot wire | 0.06304 W/m/K
473.45 K, 47 kPa, hot wire | 0.02432 W/m/K
473.45 K, 606 kPa, hot wire | 0.02611 W/m/K
473.45 K, 49207 kPa, transient hot wire | 0.06277 W/m/K
473.45 K, 49209 kPa, transient hot wire | 0.06279 W/m/K
473.45 K, 49249 kPa, transient hot wire | 0.06286 W/m/K
473.46 K, 202 kPa, hot wire | 0.02416 W/m/K
473.46 K, 606 kPa, hot wire | 0.02602 W/m/K
473.46 K, 1913 kPa, transient hot wire | 0.0269 W/m/K
473.46 K, 10825 kPa, transient hot wire | 0.04418 W/m/K
473.46 K, 10827 kPa, transient hot wire | 0.04414 W/m/K
473.47 K, 33946 kPa, transient hot wire | 0.05693 W/m/K
473.48 K, 419 kPa, hot wire | 0.02531 W/m/K
473.48 K, 1914 kPa, transient hot wire | 0.027 W/m/K
473.48 K, 22521 kPa, transient hot wire | 0.05152 W/m/K
473.48 K, 33946 kPa, transient hot wire | 0.05688 W/m/K
473.49 K, 418 kPa, hot wire | 0.02526 W/m/K
473.49 K, 1887 kPa, transient hot wire | 0.027 W/m/K
473.49 K, 15492 kPa, transient hot wire | 0.04746 W/m/K
473.49 K, 49134 kPa, transient hot wire | 0.06279 W/m/K
473.5 K, 1887 kPa, transient hot wire | 0.02709 W/m/K
473.51 K, 1475 kPa, transient hot wire | 0.02577 W/m/K
473.51 K, 49242 kPa, transient hot wire | 0.0628 W/m/K
473.52 K, 1475 kPa, transient hot wire | 0.02566 W/m/K
473.52 K, 7821 kPa, transient hot wire | 0.04156 W/m/K
473.52 K, 7822 kPa, transient hot wire | 0.04146 W/m/K
473.53 K, 10824 kPa, transient hot wire | 0.04374 W/m/K
473.53 K, 49248 kPa, transient hot wire | 0.06293 W/m/K
473.54 K, 46 kPa, hot wire | 0.0245 W/m/K
473.54 K, 201 kPa, hot wire | 0.02457 W/m/K
473.55 K, 201 kPa, hot wire | 0.02434 W/m/K
473.55 K, 839 kPa, transient hot wire | 0.02508 W/m/K
473.55 K, 10823 kPa, transient hot wire | 0.0442 W/m/K
473.55 K, 22519 kPa, transient hot wire | 0.05152 W/m/K
473.55 K, 33944 kPa, transient hot wire | 0.05699 W/m/K
473.55 K, 33949 kPa, transient hot wire | 0.05683 W/m/K
473.56 K, 46 kPa, hot wire | 0.02434 W/m/K
473.56 K, 22522 kPa, transient hot wire | 0.05162 W/m/K
473.57 K, 840 kPa, transient hot wire | 0.02498 W/m/K
473.58 K, 1912 kPa, transient hot wire | 0.02703 W/m/K and 0.02697 W/m/K
473.58 K, 15493 kPa, transient hot wire | 0.04744 W/m/K
473.6 K, 604 kPa, transient hot wire | 0.02513 W/m/K
473.6 K, 15489 kPa, transient hot wire | 0.04749 W/m/K
473.61 K, 605 kPa, transient hot wire | 0.02525 W/m/K
473.62 K, 33950 kPa, transient hot wire | 0.05685 W/m/K
473.63 K, 10824 kPa, transient hot wire | 0.04429 W/m/K
473.64 K, 10823 kPa, transient hot wire | 0.04414 W/m/K
473.65 K, 1476 kPa, transient hot wire | 0.02571 W/m/K
473.66 K, 1476 kPa, transient hot wire | 0.02567 W/m/K
473.67 K, 429 kPa, transient hot wire | 0.02546 W/m/K
473.67 K, 15488 kPa, transient hot wire | 0.04746 W/m/K
473.67 K, 22520 kPa, transient hot wire | 0.05153 W/m/K
473.68 K, 430 kPa, transient hot wire | 0.02555 W/m/K
473.71 K, 842 kPa, transient hot wire | 0.02515 W/m/K
473.71 K, 1912 kPa, transient hot wire | 0.02721 W/m/K
473.71 K, 1913 kPa, transient hot wire | 0.02727 W/m/K
473.71 K, 10824 kPa, transient hot wire | 0.04392 W/m/K
473.72 K, 841 kPa, transient hot wire | 0.02507 W/m/K
473.74 K, 10822 kPa, transient hot wire | 0.04424 W/m/K
473.75 K, 22523 kPa, transient hot wire | 0.05151 W/m/K and 0.05152 W/m/K
473.77 K, 607 kPa, transient hot wire | 0.02516 W/m/K and 0.02531 W/m/K
473.77 K, 15488 kPa, transient hot wire | 0.04755 W/m/K
473.78 K, 1476 kPa, transient hot wire | 0.02572 W/m/K
473.78 K, 15486 kPa, transient hot wire | 0.04744 W/m/K
473.79 K, 1476 kPa, transient hot wire | 0.02574 W/m/K
473.81 K, 1914 kPa, transient hot wire | 0.02747 W/m/K
473.81 K, 10823 kPa, transient hot wire | 0.0442 W/m/K and 0.04427 W/m/K
473.82 K, 427 kPa, transient hot wire | 0.02562 W/m/K
473.82 K, 428 kPa, transient hot wire | 0.02569 W/m/K
473.82 K, 1914 kPa, transient hot wire | 0.0274 W/m/K
473.85 K, 15487 kPa, transient hot wire | 0.04761 W/m/K
473.87 K, 15485 kPa, transient hot wire | 0.04754 W/m/K
473.88 K, 841 kPa, transient hot wire | 0.02504 W/m/K
473.89 K, 841 kPa, transient hot wire | 0.02504 W/m/K
473.94 K, 607 kPa, transient hot wire | 0.02517 W/m/K
473.94 K, 608 kPa, transient hot wire | 0.02532 W/m/K
473.94 K, 1476 kPa, transient hot wire | 0.02574 W/m/K
473.96 K, 1476 kPa, transient hot wire | 0.02582 W/m/K
473.98 K, 426 kPa, transient hot wire | 0.02562 W/m/K
473.99 K, 423 kPa, transient hot wire | 0.02558 W/m/K
474.04 K, 842 kPa, transient hot wire | 0.02513 W/m/K and 0.02512 W/m/K
474.09 K, 607 kPa, transient hot wire | 0.02539 W/m/K and 0.02526 W/m/K
474.16 K, 420 kPa, transient hot wire | 0.02565 W/m/K
474.16 K, 421 kPa, transient hot wire | 0.02567 W/m/K
474.19 K, 842 kPa, transient hot wire | 0.02519 W/m/K
474.2 K, 841 kPa, transient hot wire | 0.0252 W/m/K
474.27 K, 606 kPa, transient hot wire | 0.02536 W/m/K
474.28 K, 606 kPa, transient hot wire | 0.02535 W/m/K
474.31 K, 419 kPa, transient hot wire | 0.02566 W/m/K
474.32 K, 419 kPa, transient hot wire | 0.0257 W/m/K
499.37 K, 646 kPa, hot wire | 0.02778 W/m/K
499.37 K, 647 kPa, hot wire | 0.02768 W/m/K
499.4 K, 421 kPa, hot wire | 0.02708 W/m/K
499.41 K, 221 kPa, hot wire | 0.02654 W/m/K
499.41 K, 422 kPa, hot wire | 0.0269 W/m/K
499.42 K, 220 kPa, hot wire | 0.02629 W/m/K
499.45 K, 60 kPa, hot wire | 0.02624 W/m/K
499.45 K, 645 kPa, hot wire | 0.02749 W/m/K and 0.02782 W/m/K
499.47 K, 60 kPa, hot wire | 0.02576 W/m/K
499.49 K, 419 kPa, hot wire | 0.0267 W/m/K
499.5 K, 419 kPa, hot wire | 0.02667 W/m/K
499.5 K, 50295 kPa, transient hot wire | 0.06261 W/m/K
499.51 K, 219 kPa, hot wire | 0.02641 W/m/K
499.51 K, 220 kPa, hot wire | 0.02635 W/m/K
499.52 K, 4853 kPa, transient hot wire | 0.03589 W/m/K and 0.03595 W/m/K
499.52 K, 50304 kPa, transient hot wire | 0.06215 W/m/K
499.53 K, 644 kPa, hot wire | 0.02758 W/m/K
499.53 K, 2128 kPa, transient hot wire | 0.02828 W/m/K
499.54 K, 61 kPa, hot wire | 0.02593 W/m/K
499.55 K, 61 kPa, hot wire | 0.02598 W/m/K
499.55 K, 644 kPa, hot wire | 0.02734 W/m/K
499.56 K, 419 kPa, hot wire | 0.02715 W/m/K
499.56 K, 50302 kPa, transient hot wire | 0.06239 W/m/K
499.57 K, 419 kPa, hot wire | 0.02691 W/m/K
499.57 K, 4325 kPa, transient hot wire | 0.0351 W/m/K
499.57 K, 50305 kPa, transient hot wire | 0.06236 W/m/K
499.58 K, 3937 kPa, transient hot wire | 0.03408 W/m/K
499.58 K, 4853 kPa, transient hot wire | 0.03611 W/m/K
499.59 K, 50256 kPa, transient hot wire | 0.06271 W/m/K
499.59 K, 50258 kPa, transient hot wire | 0.06238 W/m/K
499.6 K, 218 kPa, hot wire | 0.02625 W/m/K
499.6 K, 219 kPa, hot wire | 0.0263 W/m/K
499.6 K, 3614 kPa, transient hot wire | 0.03311 W/m/K
499.6 K, 4853 kPa, transient hot wire | 0.036 W/m/K
499.61 K, 35693 kPa, transient hot wire | 0.05695 W/m/K
499.61 K, 50280 kPa, transient hot wire | 0.06265 W/m/K
499.62 K, 61 kPa, hot wire | 0.02606 W/m/K and 0.02605 W/m/K
499.62 K, 5588 kPa, transient hot wire | 0.03699 W/m/K
499.62 K, 35669 kPa, transient hot wire | 0.057 W/m/K
499.62 K, 35696 kPa, transient hot wire | 0.05672 W/m/K
499.63 K, 643 kPa, hot wire | 0.02745 W/m/K
499.63 K, 3615 kPa, transient hot wire | 0.03333 W/m/K
499.63 K, 4324 kPa, transient hot wire | 0.03525 W/m/K
499.63 K, 5589 kPa, transient hot wire | 0.03717 W/m/K
499.63 K, 35672 kPa, transient hot wire | 0.05682 W/m/K
499.63 K, 50307 kPa, transient hot wire | 0.06251 W/m/K
499.64 K, 644 kPa, hot wire | 0.02725 W/m/K
499.64 K, 1595 kPa, transient hot wire | 0.0274 W/m/K
499.64 K, 3289 kPa, transient hot wire | 0.03215 W/m/K
499.64 K, 4325 kPa, transient hot wire | 0.03518 W/m/K
499.64 K, 50259 kPa, transient hot wire | 0.06245 W/m/K
499.65 K, 419 kPa, hot wire | 0.02725 W/m/K
499.65 K, 1595 kPa, transient hot wire | 0.02712 W/m/K
499.65 K, 2128 kPa, transient hot wire | 0.02826 W/m/K and 0.0282 W/m/K
499.65 K, 4853 kPa, transient hot wire | 0.03633 W/m/K
499.65 K, 4854 kPa, transient hot wire | 0.03629 W/m/K
499.66 K, 418 kPa, hot wire | 0.02719 W/m/K
499.66 K, 3937 kPa, transient hot wire | 0.03435 W/m/K and 0.03413 W/m/K
499.67 K, 2953 kPa, transient hot wire | 0.0308 W/m/K
499.67 K, 35694 kPa, transient hot wire | 0.05685 W/m/K
499.68 K, 50260 kPa, transient hot wire | 0.06229 W/m/K
499.69 K, 218 kPa, hot wire | 0.02623 W/m/K and 0.0264 W/m/K
499.69 K, 5590 kPa, transient hot wire | 0.03719 W/m/K
499.69 K, 35675 kPa, transient hot wire | 0.05669 W/m/K
499.69 K, 35681 kPa, transient hot wire | 0.05715 W/m/K
499.69 K, 50252 kPa, transient hot wire | 0.06264 W/m/K
499.7 K, 60 kPa, hot wire | 0.02639 W/m/K and 0.0261 W/m/K
499.7 K, 2953 kPa, transient hot wire | 0.03112 W/m/K
